# Literature values as cited in US6544961B1, “Combinations comprising VX478, zidovudine, FTC and/or 3TC for use in the treatments of HIV” (SmithKline Beecham Corporation, priority 1996, dated 2003).
# Test system: HIV
# Conditions: European Patent Specification No. 384536
smiles,measurement,value
"Nc1ccn(C2CSC(CO)O2)c(=O)n1 (racemic) [BCH-189, 4-amino-1-(2-hydroxymethyl-1,3-oxathiolan-5-yl)-(1H)-pyrimidin-2-one]",anti-HIV activity,have been found to have anti-HIV activity
